Measured values: EP3345917A1, “ANTIPROTOZOAL COMPOUNDS” (Bacoba AG, priority 2017, dated 2018)
“And” between values parts separate entries of the source, which are not always exact repeats. Identical values can stand only once. “Also recorded” adds a separate entry of the source. Like-named read-outs stand apart in the source and are kept apart here. Each block holds one compound with its values, some of them ahead of it. Non-standard residues stand in square brackets, D forms with d. Residues, ends and D or L forms follow the SMILES beside them. *: point of attachment. NH(1-CH2NMe2-cBu) = CN(C)CC1(N*)CCC1; Oxazole4CO(2-Me) = Cc1nc(C(=O)*)co1; Benzoyl(4-F) = O=C(c1ccc(F)cc1)*; hCha = N[C@@H](CCC1CCCCC1)C(=O)O; Aib = CC(C)(N)C(=O)O; βAla = NCCC(=O)O

Key:
[1] = tested on: Plasmodium falciparum K1 strain; experiment: microbe, parasite or virus in culture
Method: (§1) Testing of compounds against Plasmodium falciparum (K1 strain), Trypanosoma brucei rhodesiense (STIB 900 strain), Trypanosoma cruzi trypomastigote forms (Tulahuen strain), and Leishmania donovani (strain MHOM/ET/67/L82) was performed in 96 well plates at concentrations in serial dilutions. Tests were done in triplicate. IC50 values against the parasites as well as cytotoxic effects against rat myoblast (L6-cells) were determined by serial dilution and repeated twice.
Determination of activity against Plasmodium falciparum K1 strain was done using a modified version of the ^3H-hypoxanthine incorporation assay by Trager and Jensen (Trager W. and Jensen, J.B. Science 1976; 193:673-675). After incubation the plates were harvested using a Betaplate cell harvester (Wallac, Switzerland) onto glass-fiber filters and washed. The dried filters were inserted into plastic foils with 10 ml scintillation fluid. The radioactivity was counted with a Betaplate liquid scintillation counter (Wallac, Switzerland) as counts per minute per well at each drug concentration and compared to the untreated controls. […] IC50 values were calculated by linear interpolation. All assays were run in duplicate and repeated two times.

[2] = tested on: Trypanosoma brucei brucei; experiment: Acute mouse sleeping sickness model (in vivo antitrypanosomal activity); details: for Mean day of relapse / Mean day of survival / animals surviving until day 31: group of four mice; for Day of relapse / Parasitaemia day 7 / Parasitaemia day 10 / Parasitaemia day 14 / Parasitaemia day 17 / Parasitaemia day 21 / Parasitaemia day 24 / Parasitaemia day 28 / Parasitaemia day 31 / Survival days: individual mice; for parasitaemia on day 7: day 7 post infection; for reduction of parasitaemia compared to untreated controls: four mice; on Parasitaemia day 7: key: 0 = no parasite in 20 fields of view; ((+)) = 1 Trypanosome in 20 fields of view; (+) = 1 Trypanosome per field of view; + = 2 - 5 Trypanosomes per field of view; ++ = 6 - 20 Trypanosomes per field of view, the mouse is killed; +++ = > 20 Trypanosomes per field of view, the mouse is killed
Method: This model mimics the first stage of the human African trypanosomiasis. Adult female NMRI mice were purchased from Janvier (St. Berthevin, France). They weighed between 20 and 25 g at the beginning of the study and were kept under standard conditions at 22 °C and 60-70% humidity in macro Ion type III cages with food pellets and water ad libitum. The samples were first dissolved in 100% DMSO, followed by addition of distilled H2O to a final DMSO concentration of 10%. For determination of the in vivo antitrypanosomal activity, mice were infected intraperitoneally with 1 x 10^4 STIB900 bloodstream forms. […] A control group of four mice was infected, but remained untreated. The determination of the parasitaemia was done on days 7, 10, 14, 17, 21, 24, 28, and 31 post infection. To do this 6 µL of tail blood were diluted in 24 µL sodium citrate (3.2%), whereby the first µL was discarded to obtain circulating blood. Five µL of this mixture were transferred to a glass slide and covered with an 18 x 18 mm cover slide. The sample was examined under a light microscope (200-fold magnification) and parasites were counted in 3 of the 16 squares of the grid.

Plasmodium falciparum = experiment: 3H-hypoxanthine incorporation assay against Plasmodium falciparum; assay type: cell-based; details: In vitro inhibition, read-out: P.falc NF5
Method: (§2) Tests were done in triplicate.
IC50 values were calculated by linear interpolation.

[3] = tested on: Trypanosoma brucei rhodesiense (STIB 900 strain); experiment: Alamar Blue assay against Trypanosoma brucei rhodesiense grown in axenic medium; assay type: cell-based; details: In vitro inhibition, read-out: T.b.rhod.
Outline: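 T. b. rhodesiense STIB 900 cultured in axenic medium and exposed to samples in an Alamar Blue viability assay, run in triplicate. IC50 calculated from the readout; melarsoprol served as reference drug.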

[4] = tested on: intracellular Leishmania donovani (L.don. InMac); experiment: Intracellular Leishmania donovani assay (L.don. InMac); assay type: cell-based; details: In vitro inhibition
Excerpt: as §2

[5] = tested on: Axenically grown Leishmania donovani amastigotes (strain MHOM/ET/67/L82); experiment: Axenic Leishmania donovani amastigote resazurin assay; assay type: cell-based; details: In vitro inhibition, read-out: L.don. ax
Outline: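 Strain MHOM/ET/67/L82 amastigotes grown axenically and tested in triplicate by resazurin assay. Plates developed 2-4 hours, fluorescence read at 536 nm excitation/588 nm emission and expressed as percentage of negative control.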

[6] = Cytotoxicity assay on L6-cells (Alamar Blue); details: rat, Cytotox L6, Cytotoxicity against rat myoblast cells (L6)
[7] = tested on: Trypanosoma cruzi trypomastigote forms (Tulahuen strain); experiment: Intracellular Trypanosoma cruzi assay in L6-cells, beta-galactosidase/CPRG readout; assay type: cell-based; details: In vitro inhibition, read-out: T.cruzi.
Outline: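 L6 rat myoblasts infected with Tulahuen C2C4 LacZ T. cruzi; after incubation, CPRG/Nonidet substrate added and colour developed 2–6 h. Absorbance at 540 nm; IC50 calculated; triplicate tests.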

rat myoblast (L6-cells) = experiment: Cytotoxicity assay on L6-cells (Alamar Blue); details: Rattus norvegicus, Myoblast, 70 h
Method: as §1

[8] = Cytotoxicity assay on L6-cells (Alamar Blue); details: rat, L6 rat myoblast cells
Method: as §1

[9] = 3 mg/kg per injection, 2 per day, 4 treatment days, i.p.
[10] = 3 mg/kg twice a day for 4 days, intraperitoneally
[11] = 30 mg/kg per injection, 1 per day, 4 treatment days, p.o.
[12] = 3 mg/kg per injection, 2 per day, 2 treatment days, i.p.
[13] = 3 mg/kg twice a day for 2 days, intraperitoneal

IC50 ([1]; K1): 50 ± 10 nM
IC50 ([1]; K1, read-out: P.falc NF5): 6.25 nM
SMILES: CCN(CC)CCCC(C)Nc1ccnc2cc(Cl)ccc12 (stereo not drawn) [Chloroquine]

SMILES: Cc1nc(C(=O)N2CCC[C@H]2C(=O)N[C@@H](CCC2CCCCC2)C(=O)N[C@@H](CC(C)C)C(=O)NC(C)(C)C(=O)N[C@@H](CC(C)C)C(=O)N[C@@H](CC(C)C)C(=O)NC(C)(C)C(=O)NC(C)(C)C(=O)NCCC(=O)NC2(CN(C)C)CCC2)co1 [Compound 6025, (2S)-2-[(2S)-4-cyclohexyl-2-{[(2S)-1-(2-methyl-1,3-oxazole-4-carbonyl)pyrrolidin-2-yl]formamido}butanamido]-N-(1-{[(1S)-1-{[(1S)-1-({1-[(1-{[2-({1-[(dimethylamino)methyl]cyclobutyl}carbamoyl)ethyl]carbamoyl}-1-methylethyl)carbamoyl]-1-methylethyl}carbamoyl)-3-methylbutyl]carbamoyl}-3-methylbutyl]carbamoyl}-1-methylethyl)-4-methylpentanamide] ({Oxazole4CO(2-Me)}-P[hCha]L[Aib]LL[Aib][Aib][βAla]-{NH(1-CH2NMe2-cBu)})
Mean day of relapse [2, 9]: 15 days
Mean day of survival [2, 9]: 28 days
Day of relapse [2, 9]: 10 day and 17 day (2×)
Parasitaemia day 7 [2, 9]: 0
Parasitaemia day 10 [2, 9]: 0 (3×) and ((+)) (((+)) = 1 Trypanosome in 20 fields of view)
Parasitaemia day 14 [2, 9]: 0
Parasitaemia day 17 [2, 9]: 0 and ((+)) (((+)) = 1 Trypanosome in 20 fields of view) and ++ (++ = 6 - 20 Trypanosomes per field of view, the mouse is killed) and (+) ((+) = 1 Trypanosome per field of view)
Parasitaemia day 21 [2, 9]: 0 (2×) and (+) ((+) = 1 Trypanosome per field of view)
Parasitaemia day 24 [2, 9]: 0 (2×) and ((+)) (((+)) = 1 Trypanosome in 20 fields of view)
Parasitaemia day 28 [2, 9]: 0
Parasitaemia day 31 [2, 9]: 0 (2×) and (+) ((+) = 1 Trypanosome per field of view)
Survival days [2, 9]: 31 days (3×) and 17 days
animals surviving treatment [2, 10]: all animals survived treatment
parasitaemia on day 7 [2, 10]: no observable parasitaemia
reduction of parasitaemia compared to untreated controls [2, 10]: significant reduction of parasitaemia
animals surviving until day 31 [2, 10]: three out of four
animals with no observable parasitaemia at day 31 ([2]; 3 mg/kg twice a day for 4 days, intraperitoneally, of the three survivors): 2
Mean day of relapse [2, 11]: 15 days
Mean day of survival [2, 11]: 21 days
Day of relapse [2, 11]: 17 day (2×) and 14 day and 10 day
Parasitaemia day 7 [2, 11]: 0
Parasitaemia day 10 [2, 11]: 0 (3×) and ((+)) (((+)) = 1 Trypanosome in 20 fields of view)
Parasitaemia day 14 [2, 11]: 0 (2×) and (+) ((+) = 1 Trypanosome per field of view) (2×)
Parasitaemia day 17 [2, 11]: + (+ = 2 - 5 Trypanosomes per field of view); also recorded: ++ (++ = 6 - 20 Trypanosomes per field of view, the mouse is killed)
Parasitaemia day 21 [2, 11]: ((+)) (((+)) = 1 Trypanosome in 20 fields of view)
Parasitaemia day 24 [2, 11]: (+) ((+) = 1 Trypanosome per field of view)
Parasitaemia day 28 [2, 11]: + (+ = 2 - 5 Trypanosomes per field of view)
Parasitaemia day 31 [2, 11]: +++ (+++ = > 20 Trypanosomes per field of view, the mouse is killed)
Survival days [2, 11]: 20 days and 17 days (2×) and 31 days
animals surviving treatment ([2]; mouse, in vivo, po, 30 mg/kg): all animals survived treatment
relapse by day 17 ([2]; orally at 30 mg/kg once a day): all had relapsed
parasitaemia on day 7 ([2]; orally at 30 mg/kg once a day): no observable parasitaemia
reduction of parasitaemia compared to untreated controls ([2]; orally at 30 mg/kg once a day): significant reduction of parasitaemia
animals surviving until day 31 ([2]; orally at 30 mg/kg once a day): one
IC50 (Plasmodium falciparum): 20900 nM
IC50 [3]: 0.5 nM
IC50 [4]: 41.1 nM
IC50 [5]: 31300 nM
IC50 at 70 h [6]: 1910 nM
IC50 [7]: 215 nM

SMILES: CC(C)C[C@H](NC(=O)[C@H](CCC1CCCCC1)NC(=O)[C@@H]1CCCN1C(=O)c1ccc(F)cc1)C(=O)NC(C)(C)C(=O)N[C@@H](CC(C)C)C(=O)N[C@@H](CC(C)C)C(=O)NC(C)(C)C(=O)NC(C)(C)C(=O)NCCC(=O)NC1(CN(C)C)CCC1 [Compound 6027, (2S)-2-[(2S)-4-cyclohexyl-2-{[(2S)-1-(4-fluorobenzoyl)pyrrolidin-2-yl]formamido}butanamido]-N-(1-{[(1S)-1-{[(1S)-1-({1-[(1-{[2-({1-[(dimethylamino)methyl]cyclobutyl}carbamoyl)ethyl]carbamoyl}-1-methylethyl)carbamoyl]-1-methylethyl}carbamoyl)-3-methylbutyl]carbamoyl}-3-methylbutyl]carbamoyl}-1-methylethyl)-4-methylpentanamide] ({Benzoyl(4-F)}-P[hCha]L[Aib]LL[Aib][Aib][βAla]-{NH(1-CH2NMe2-cBu)})
Mean day of relapse [2, 12]: 17 days
Mean day of survival [2, 12]: 18 days
Day of relapse [2, 12]: 17 days
Parasitaemia day 7 [2, 12]: 0
Parasitaemia day 10 [2, 12]: 0
Parasitaemia day 14 [2, 12]: 0
Parasitaemia day 17 [2, 12]: ++ (++ = 6 - 20 Trypanosomes per field of view, the mouse is killed); also recorded: + (+ = 2 - 5 Trypanosomes per field of view)
Parasitaemia day 21 [2, 12]: ((+)) (((+)) = 1 Trypanosome in 20 fields of view)
Parasitaemia day 24 [2, 12]: ((+)) (((+)) = 1 Trypanosome in 20 fields of view)
Parasitaemia day 28 [2, 12]: (+) ((+) = 1 Trypanosome per field of view)
Parasitaemia day 31 [2, 12]: (+) ((+) = 1 Trypanosome per field of view)
Survival days [2, 12]: 17 days (2×) and 31 days and 5 days
parasitaemia by day 17 [2, 13]: all surviving animals showed parasitaemia
parasitaemia of the surviving animal at day 31 [2, 13]: low parasitaemia
animals sacrificed after parasitaemia relapse ([2]; 3 mg/kg twice a day for 2 days, intraperitoneal, after day 17): two
parasitaemia on day 7 [2, 13]: no observable parasitaemia
reduction of parasitaemia compared to untreated controls [2, 13]: significant reduction of parasitaemia
animals surviving until day 31 [2, 13]: one
animals surviving treatment ([2]; 3 mg/kg twice a day for 2 days, intraperitoneal, one death on day 5 for unspecified reasons): all animals survived treatment, except for one
IC50 (Plasmodium falciparum): 42500 nM
IC50 [3]: 0.4 nM
IC50 [4]: 54.2 nM
IC50 [5]: 34100 nM
IC50 at 70 h [6]: 1390 nM
IC50 [7]: 155 nM

SMILES: COc1cc([C@@H]2c3cc4c(cc3[C@H](O)[C@H]3COC(=O)[C@H]23)OCO4)cc(OC)c1OC [Podophyllotoxin]
IC50 (rat myoblast (L6-cells)): 50 ± 10 nM
IC50 at 70 h [8]: 19.3 nM
